ChEMBL document CHEMBL2311283, “Structural modifications to tetrahydropyridine-3-carboxylate esters en route to the discovery of M5-preferring muscarinic receptor orthosteric antagonists” (J Med Chem, 2013)
pKi: −log10 of the molar value.

Key:
[1] = species: Homo sapiens; assay: Selectivity index, ratio of Ki for human M1 muscarinic receptor to Ki for human M5 muscarinic receptor
[2] = target: T1, Muscarinic acetylcholine receptor M1 (Homo sapiens, UniProt P11229); assay: biochemical; format: cell-based, CHO-K1
T1 sequence (P11229 whole entry): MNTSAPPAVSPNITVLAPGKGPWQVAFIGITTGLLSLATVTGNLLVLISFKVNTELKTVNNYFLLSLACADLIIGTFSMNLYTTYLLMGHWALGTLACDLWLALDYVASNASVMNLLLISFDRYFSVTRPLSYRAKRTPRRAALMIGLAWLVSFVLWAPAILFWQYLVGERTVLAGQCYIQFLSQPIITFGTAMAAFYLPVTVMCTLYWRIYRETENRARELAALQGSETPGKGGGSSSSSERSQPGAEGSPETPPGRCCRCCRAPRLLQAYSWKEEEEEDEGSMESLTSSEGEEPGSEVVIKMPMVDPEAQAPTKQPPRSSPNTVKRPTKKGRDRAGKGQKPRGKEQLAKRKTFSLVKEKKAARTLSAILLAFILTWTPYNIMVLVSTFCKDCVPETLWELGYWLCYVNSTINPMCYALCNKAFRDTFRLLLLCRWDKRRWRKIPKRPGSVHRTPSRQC

[3] = target: T2, Muscarinic acetylcholine receptor M5 (Homo sapiens, UniProt P08912); assay: Displacement of [3H]NMS from human M5 muscarinic receptor expressed in CHO-K1 cells; format: cell-based
T2 sequence (P08912 whole entry): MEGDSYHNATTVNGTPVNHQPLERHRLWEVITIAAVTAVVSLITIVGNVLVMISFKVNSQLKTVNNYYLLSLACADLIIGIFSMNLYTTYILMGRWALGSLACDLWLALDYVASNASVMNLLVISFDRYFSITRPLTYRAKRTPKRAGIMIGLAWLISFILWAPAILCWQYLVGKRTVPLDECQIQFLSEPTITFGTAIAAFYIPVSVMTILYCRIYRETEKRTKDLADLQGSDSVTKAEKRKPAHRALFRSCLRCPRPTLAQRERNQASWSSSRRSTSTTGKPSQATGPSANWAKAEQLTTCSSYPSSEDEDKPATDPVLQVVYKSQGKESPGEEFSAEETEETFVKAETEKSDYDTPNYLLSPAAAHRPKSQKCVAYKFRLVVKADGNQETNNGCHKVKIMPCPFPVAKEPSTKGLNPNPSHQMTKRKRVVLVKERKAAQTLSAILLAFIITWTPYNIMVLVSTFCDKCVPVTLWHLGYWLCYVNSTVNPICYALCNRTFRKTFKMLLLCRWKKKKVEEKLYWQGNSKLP

[4] = target: T3, Muscarinic acetylcholine receptor M2 (Homo sapiens, UniProt P08172); assay: Displacement of [3H]NMS from human M2 muscarinic receptor expressed in CHO-K1 cells; format: cell-based
T3 sequence (P08172 whole entry): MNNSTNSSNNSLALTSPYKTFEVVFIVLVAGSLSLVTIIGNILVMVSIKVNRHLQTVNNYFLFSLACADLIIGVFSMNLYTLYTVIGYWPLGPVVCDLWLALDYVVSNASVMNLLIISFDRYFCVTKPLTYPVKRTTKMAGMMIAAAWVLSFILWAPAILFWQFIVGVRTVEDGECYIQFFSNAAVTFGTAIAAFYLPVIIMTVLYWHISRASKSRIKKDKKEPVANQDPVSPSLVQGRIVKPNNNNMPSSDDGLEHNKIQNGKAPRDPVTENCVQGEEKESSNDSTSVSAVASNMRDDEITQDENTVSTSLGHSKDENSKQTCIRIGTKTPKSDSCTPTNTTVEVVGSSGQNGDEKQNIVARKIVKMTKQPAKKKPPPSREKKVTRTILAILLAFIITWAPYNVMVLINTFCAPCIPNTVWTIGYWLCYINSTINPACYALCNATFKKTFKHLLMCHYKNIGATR

[5] = species: Homo sapiens; assay: Selectivity index, ratio of Ki for human M3 muscarinic receptor to Ki for human M5 muscarinic receptor
[6] = species: Homo sapiens; assay: Selectivity index, ratio of Ki for human M4 muscarinic receptor to Ki for human M5 muscarinic receptor
[7] = target: Muscarinic acetylcholine receptor M3 (Homo sapiens, UniProt P20309); assay: Displacement of [3H]NMS from human M3 muscarinic receptor expressed in CHO-K1 cells; format: cell-based
[8] = target: T4, Muscarinic acetylcholine receptor M4 (Homo sapiens, UniProt P08173); assay: Displacement of [3H]NMS from human M4 muscarinic receptor expressed in CHO-K1 cells; format: cell-based
T4 sequence (P08173 whole entry): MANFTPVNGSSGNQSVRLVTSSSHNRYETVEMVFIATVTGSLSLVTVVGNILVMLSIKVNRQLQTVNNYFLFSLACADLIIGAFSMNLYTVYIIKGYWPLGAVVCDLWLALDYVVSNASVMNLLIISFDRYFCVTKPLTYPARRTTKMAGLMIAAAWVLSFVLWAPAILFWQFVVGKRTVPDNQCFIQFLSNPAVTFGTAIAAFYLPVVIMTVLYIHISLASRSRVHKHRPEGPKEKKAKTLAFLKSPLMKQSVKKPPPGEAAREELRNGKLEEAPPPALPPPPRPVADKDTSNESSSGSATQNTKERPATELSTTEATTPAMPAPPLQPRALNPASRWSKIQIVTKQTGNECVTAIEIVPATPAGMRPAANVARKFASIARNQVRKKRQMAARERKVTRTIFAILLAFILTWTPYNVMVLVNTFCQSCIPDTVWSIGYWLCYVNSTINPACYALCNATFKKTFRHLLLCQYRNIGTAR

Chain of Muscarinic acetylcholine receptor M3 (P20309 whole entry): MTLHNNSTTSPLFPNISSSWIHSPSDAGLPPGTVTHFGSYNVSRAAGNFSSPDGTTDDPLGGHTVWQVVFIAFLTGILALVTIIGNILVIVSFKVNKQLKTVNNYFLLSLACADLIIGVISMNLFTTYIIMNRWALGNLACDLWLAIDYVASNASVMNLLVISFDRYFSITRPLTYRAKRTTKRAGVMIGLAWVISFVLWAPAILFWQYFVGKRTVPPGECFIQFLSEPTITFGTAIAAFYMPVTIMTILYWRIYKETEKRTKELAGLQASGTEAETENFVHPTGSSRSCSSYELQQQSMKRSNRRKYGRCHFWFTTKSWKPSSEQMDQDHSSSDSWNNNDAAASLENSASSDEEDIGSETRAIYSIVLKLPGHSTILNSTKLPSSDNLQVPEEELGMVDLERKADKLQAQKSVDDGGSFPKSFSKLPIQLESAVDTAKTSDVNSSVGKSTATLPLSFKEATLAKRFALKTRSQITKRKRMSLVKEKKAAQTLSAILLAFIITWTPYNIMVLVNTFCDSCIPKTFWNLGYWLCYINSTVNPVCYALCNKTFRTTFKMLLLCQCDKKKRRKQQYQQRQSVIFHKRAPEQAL

Row | Structure (SMILES) | Ratio Ki [1] | pKi [2] | pKi [3] | pKi [4] | Ratio Ki [5] | Ratio Ki [6] | pKi [7] | pKi [8]
1 | CCN1CCC(c2ccccc2)=C(C(=O)OCCc2ccsc2)C1 | 0.7 | 6.85 | 6.72 |  |  |  |  | 
2 | CCOC(=O)C1=C(c2ccccc2)CCN(CCc2ccc(OC)cc2)C1 |  | < 4.00 | < 4.00 |  |  |  |  | 
3 | COc1cccc(C2=C(C(=O)OCCc3ccc(OC)c(OC)c3)CN(C)CC2)c1 |  | < 4.00 | < 4.00 |  |  |  |  | 
4 | COc1cccc(C2=C(C(=O)OCCc3ccc4c(c3)CCO4)CN(C)CC2)c1 | 0.9 | 5.61 | 5.57 |  |  |  |  | 
5 | CN1CCC(c2ccccc2)=C(C(=O)OCc2ccc3c(c2)CCO3)C1 |  | < 4.00 | < 4.00 |  |  |  |  | 
6 | CN1CCC(c2ccccc2F)=C(C(=O)OCCc2ccc3c(c2)CCO3)C1 | 7 | 5.28 | 6.13 | 6.27 | 6.6 | 7.8 | 5.31 | 5.24
7 | CCN1CCC(c2ccc(F)cc2)=C(C(=O)OCCc2ccc3c(c2)CCO3)C1 | 3.4 | 5.10 | 5.63 |  |  |  |  | 
8 | CCOC(=O)C1=C(c2ccccc2)CCN(C2CCN(C(=O)c3c(C)cccc3C)CC2)C1 |  | < 4.00 | < 4.00 |  |  |  |  | 
9 | CCN1CCC(c2ccccc2)=C(C(=O)OCCc2ccc(S(C)(=O)=O)cc2)C1 |  | < 4.00 | < 4.00 |  |  |  |  | 
10 | COc1ccccc1C1=C(C(=O)OCCc2ccc3c(c2)CCO3)CN(C)CC1 | 3.5 | 5.08 | 5.62 |  |  |  |  | 
11 | CCN1CCC(c2ccccc2)=C(C(=O)OCCc2ccc([N+](=O)[O-])cc2)C1 | 1.8 | 6.09 | 6.36 |  |  |  |  | 
12 | CN1CCC(c2ccccc2)=C(C(=O)OCCc2cccc3ccccc23)C1 | 4.8 | 4.61 | 5.30 | < 4.00 | > 20 | > 20 | < 4.00 | < 4.00
13 | CCOC(=O)C1=C(c2ccccc2)CCN(C2CCN(C(=O)c3c(Cl)cccc3Cl)CC2)C1 |  | < 4.00 | < 4.00 |  |  |  |  | 
14 | CCN1CCC(c2ccccc2)=C(C(=O)OCCc2cc(OC)c(OC)c(OC)c2)C1 |  | < 4.00 | < 4.00 |  |  |  |  | 
15 | CN1CCC(c2ccccc2)=C(C(=O)OCCc2cccc(F)c2)C1 | 4.1 | 6.48 | 7.10 |  |  |  |  | 
16 | COC(COC(=O)C1=C(c2ccccc2)CCN(C)C1)c1ccccc1 (stereo not given) |  | < 4.00 | < 4.00 |  |  |  |  | 
17 | Cc1cccc(CCOC(=O)C2=C(c3ccccc3)CCN(C)C2)c1 | 3.1 | 6.06 | 6.55 |  |  |  |  | 
18 | CCOC(=O)C1=C(c2ccccc2)CCN(C2CCN(S(=O)(=O)c3ccc(C)cc3)CC2)C1 |  | < 4.00 | < 4.00 |  |  |  |  | 
19 | CCN1CCC(c2ccccc2)=C(C(=O)OCCc2cccc(OC)c2)C1 | 3.1 | 6.33 | 6.82 |  |  |  |  | 
20 | CN1CCC(c2ccccc2)=C(C(=O)OCCc2ccc3c(c2)CCO3)C1 | 4.8 | 6.54 | 7.22 | 5.93 | 47 | 32 | 5.55 | 5.72
21 | COc1ccc(CCOC(=O)C2=C(c3ccccc3)CCN(C)C2)cc1 | 0.7 | 7.70 | 7.52 |  |  |  |  | 
22 | COc1ccc(CCOC(=O)C2=C(c3ccccc3)CN(C)CC2)cc1OC |  | 5.21 | 5.58 |  |  |  |  | 
23 | COc1ccc(CCOC(=O)C2=C(c3ccccc3)CCN(C)C2)cc1C | 3.6 | 5.57 | 6.13 |  |  |  |  | 
24 | COc1ccc(CCOC(=O)C2=C(c3ccccc3)CCN(Cc3ccc(OC)cc3)C2)cc1 |  | < 4.00 | < 4.00 |  |  |  |  | 

Row | Structure (SMILES) | Ratio Ki [1] | pKi [2] | pKi [3] | pKi [4] | Ratio Ki [5] | Ratio Ki [6] | pKi [7] | pKi [8]
25 | CN1CCC(C(=O)OCCc2ccc3c(c2)CCO3)=C(c2ccccc2)C1 |  | 6.68 | 5.94 |  |  |  |  | 
26 | CCOC(=O)C1=C(c2ccccc2)CCN(CCc2ccc3c(c2)OCO3)C1 |  | < 4.00 | < 4.00 |  |  |  |  | 
27 | CCCN1CCC(c2ccccc2)=C(C(=O)OCCc2ccc3c(c2)CCO3)C1 |  | < 4.00 | < 4.00 |  |  |  |  | 
28 | COc1ccc(CCOC(=O)C2=C(c3ccccc3F)CCN(C)C2)cc1OC |  | < 4.00 | < 4.00 |  |  |  |  | 
29 | CN1CC=C(c2ccccc2C(=O)OCCc2ccc3c(c2)CCO3)CC1 |  | < 4.00 | < 4.00 |  |  |  |  | 
30 | COc1ccc(CCCCOC(=O)C2=C(c3ccccc3)CCN(C)C2)cc1 | 4.7 | 5.27 | 5.94 |  |  |  |  | 
31 | COc1ccc(OCCOC(=O)C2=C(c3ccccc3)CCN(C)C2)cc1 | 2 | 5.21 | 5.51 |  |  |  |  | 
32 | CCN1CCC(c2ccccc2)=C(C(=O)O[C@@H](C)Cc2ccc(OC)cc2)C1 |  | < 4.00 | < 4.00 |  |  |  |  | 
33 | COc1ccc(CCOC(=O)C2=C(c3ccccc3OC)CCN(C)C2)cc1OC |  | < 4.00 | < 4.00 |  |  |  |  | 
34 | CCN1CCC(c2ccccc2)=C(C(=O)OCc2ccc(OC)cc2)C1 | 0.8 | 5.51 | 5.44 |  |  |  |  | 
35 | CCCCN1CCC(c2ccccc2)=C(C(=O)OCCc2ccc3c(c2)CCO3)C1 |  | < 4.00 | < 4.00 |  |  |  |  | 
36 | CCN1CCC(c2ccccc2)=C(C(=O)OCCc2ccc(OC)c(F)c2)C1 | 4.8 | 4.93 | 5.61 |  |  |  |  | 
37 | CN1CCC(c2cccc(F)c2)=C(C(=O)OCCc2ccc3c(c2)CCO3)C1 |  | < 4.00 | < 4.00 |  |  |  |  | 
38 | CN1CCC(c2ccccc2)=C(C(=O)OCCc2ccc(S(C)(=O)=O)cc2)C1 | 4.6 | 6.29 | 6.96 |  |  |  |  | 
39 | CCN1CCC(c2ccccc2)=C(C(=O)OCCc2ccc3c(c2)OCO3)C1 | 0.7 | 6.70 | 6.55 |  |  |  |  | 
40 | CCOC(=O)C1=C(c2ccccc2)CCN(CCc2ccccc2)C1 |  | < 4.00 | < 4.00 |  |  |  |  | 
41 | CCCN1CCC(c2ccccc2)=C(C(=O)OCCc2ccc(OC)cc2)C1 |  | < 4.00 | < 4.00 |  |  |  |  | 
42 | CCOC(=O)C1=C(c2ccccc2)CCN(CCc2ccc3c(c2)CCO3)C1 |  | < 4.00 | < 4.00 |  |  |  |  | 
43 | CCN1CCC(c2ccccc2)=C(C(=O)OCc2ccc3c(c2)OCO3)C1 | 0.5 | 7.22 | 6.92 |  |  |  |  | 
44 | CN1CCC(c2ccccc2)=C(C(=O)OCCCc2ccc3c(c2)CCO3)C1 | 1.5 | 6.04 | 6.20 |  |  |  |  | 
45 | COc1ccc(CCOC(=O)C2=C(c3cccc(F)c3)CCN(C)C2)cc1OC | 8.1 | 4.57 | 5.48 | < 4.00 | > 30 | > 30 | < 4.00 | < 4.00
46 | CSc1ccc(CCOC(=O)C2=C(c3ccccc3)CCN(C)C2)cc1 | 1.8 | 6.47 | 6.72 |  |  |  |  | 
47 | CCCCN1CCC(c2ccccc2)=C(C(=O)OCCc2ccc(OC)cc2)C1 |  | < 4.00 | < 4.00 |  |  |  |  | 
48 | CCN1CCC(c2ccccc2)=C(C(=O)OCCCc2ccc(OC)cc2)C1 |  |  |  | 5.69 |  |  | 5.39 | 4.94
